Source: article PMC12058161, “The plant matrix of Artemisia annua L. for the treatment of malaria: Pharmacodynamic and pharmacokinetic studies” (PLOS One, 2025)
Where “and” joins values, the source holds several entries; their conditions need not be identical. Equal values may be shown once.

Tests used:
[1] = Pharmacokinetic study in rats after oral administration (UHPLC-ESI-MS/MS of plasma); details: for half-life: male, Sprague Dawley, rat, in vivo, po
Protocol: Blood samples were centrifuged at 3500 rpm for 5 min at 4°C. All plasma samples were then stored at -80°C until analysis.
All samples were stored in a refrigerator at -80°C and thawed at room temperature before processing. A 50 μL aliquot of plasma was added with 5 μL of the standard solution (or acetonitrile) and 100 μL of internal standard solution in turn, vortexed and mixed, then sonicated for 3 min, centrifuged at 14000 rpm for 10 min at low temperature. The supernatant was transferred to an autosampler vial and analyzed by UHPLC-ESI-MS/MS.
The mobile phase consisted of 0.1% formic acid solution (A) and acetonitrile (B).
The ESI ionization source was used and detected in MRM mode.
All data were presented as mean ± SD. Pharmacokinetic parameters including half-life (t1/2), maximum plasma time (Tmax) and concentration (Cmax), area under concentration-time curve (AUC0-t and AUC0-∞), clearance (CL), steady-state volume of distribution (Vz), and mean residence time (MRT) were analyzed by non-compartmental method using DAS Version 2.0 (Chinese Pharmacological Society, Beijing, China). […] The data were analyzed by Student’s t-test for two groups and one-way analysis of variance for multiple groups; p < 0.05 was considered statistically significant.

Caco-2 cell monolayers = test: Bidirectional transport of ART across Caco-2 cell monolayers (LC-MS/MS); format: in vitro ADME, human; details: for transhipment of ART, AP-BL / transhipment of ART, Transepithelial transport in BL-to-AP: single replicate; for ART concentration per group, summary block: summary used for cumulative amount
Source text: (§1) The human epithelial cell line Caco-2 serves as a widely recognized model for the intestinal epithelial barrier, frequently utilized in the assessment of drug absorption and transport mechanisms. In this study, we evaluated drug absorption and distribution in vitro with the help of the Caco-2 cell model. Caco-2 cells were purchased from the Chinese Academy of Medical Sciences (Beijing, China, Resource No. 3111C0001CCC000100). The cells were resuscitated and inserted into culture flasks. Caco-2 cells were passaged with DMEM high glucose medium containing 10% (V/V) FBS, 1% (V/V) non-essential amino acid solution and 100 U/mL penicillin-streptomycin double antibiotic solution, and cultured at 37°C in a 5% CO2 incubator. […] The integrity of the cell monolayer was checked by measuring the transmembrane electrical resistance (TEER) of the monolayer cells with a Millicell-ERS electrode (Millipore Corp., Billerica, MA, USA). Caco-2 cells were used for transport experiments 17-21 days after inoculation. Besides, only monolayers with TEER values above 400 Ω/cm^2 were used in the study. […] To prepare drug-treated Caco-2 cell monolayers, Caco-2 cells cultured in Transwell® inserts were aseptically treated on day 21 with 10 μM of […] and nACTs. […] The excitation wavelength was set at 485 nm, and the emission wavelength at 535 nm. […] The efflux ratio was calculated using the Papp (BL-AP) to Papp (AP-BL) ratio. […] The solvent gradient was 65%B-95%B for 0-5 min; 95%B for 5-6 min; and 35%B for 6-9 min.

[2] = as above; format: in vitro ADME, human; details: human, Caco-2 monolayer, n = 3
Source text: as §1

[3] = test system: Plasmodium yoelii (P. yoelii); test: Peters' four-day inhibition method, P. yoelii murine malaria model; format: in vivo, ICR mice; details: individual mice
Protocol: In vivo evaluation of antimalarial activity was performed using the classical Peters’ four-day inhibition method. A murine malaria model was constructed by intraperitoneal injection of 5.00 × 10^7 Plasmodium yoelii (P. yoelii)- or Plasmodium berghei (P. berghei)-infected erythrocytes. […] Mice were gavaged once 4 hours after infection with medicated soybean oil or the test drug (gavage standard was 0.20 mL/10 g), and the drug was administered orally for 4 consecutive days. Four hours after the last dose, blood was collected from the tail tip of the mice to make a thin blood smear. The smear was air-dried, fixed in methanol, stained with Giemsa for 30 minutes, then rinsed with distilled water, air-dried at room temperature, and visualized for malaria infection under a microscope (OLYMPUS BX43) at 100x oil immersion. The inhibition ratio (%) for each group was calculated using the following equations:
Inhibitionratio(%)=(infectionratiocontrolgroup−infectionratiotreatmentgroup)/infectionratiocontrolgroup×100

P-glycoprotein (P-gp) = biological target: T1, P-glycoprotein (P-gp) (Homo sapiens, UniProt P08183); test: Rhodamine 123 (P-gp substrate) transport across drug-treated Caco-2 cell monolayers; format: cell-based; details: co-incubated with R123, 10 μM, Caco-2 monolayer, Fig 6
T1 construct: The transport of R123 in normal Caco-2 cell monolayers or drug-treated Caco-2 cell monolayers was further studied; host or cells: Caco-2
Source text: The human epithelial cell line Caco-2 serves as a widely recognized model for the intestinal epithelial barrier, frequently utilized in the assessment of drug absorption and transport mechanisms. In this study, we evaluated drug absorption and distribution in vitro with the help of the Caco-2 cell model. Caco-2 cells were purchased from the Chinese Academy of Medical Sciences (Beijing, China, Resource No. 3111C0001CCC000100). The cells were resuscitated and inserted into culture flasks. Caco-2 cells were passaged with DMEM high glucose medium containing 10% (V/V) FBS, 1% (V/V) non-essential amino acid solution and 100 U/mL penicillin-streptomycin double antibiotic solution, and cultured at 37°C in a 5% CO2 incubator. […] The integrity of the cell monolayer was checked by measuring the transmembrane electrical resistance (TEER) of the monolayer cells with a Millicell-ERS electrode (Millipore Corp., Billerica, MA, USA). Caco-2 cells were used for transport experiments 17–21 days after inoculation. Besides, only monolayers with TEER values above 400 Ω/cm^2 were used in the study.
The transport of R123 in normal Caco-2 cell monolayers or drug-treated Caco-2 cell monolayers was further studied. […] The transport buffer containing 5 μM of R123 was added on either the AP or the BL side of the inserts, as described above. […] The concentrations of R123 were immediately analyzed by SpectraMax iD3. The excitation wavelength was set at 485 nm, and the emission wavelength at 535 nm. Papp values across the cell monolayers were calculated according to the equation: Papp = dQ/dt × 1/(A × C0), where dQ/dt represents the rate of drug transport. […] The efflux ratio was calculated using the Papp (BL-AP) to Papp (AP-BL) ratio.

[4] = sample code A: apical(AP), 30 min
[5] = sample code A: apical(AP), 60 min
[6] = sample code A: apical(AP), 90 min
[7] = sample code A: apical(AP), 120 min
[8] = sample code A: apical(AP), 150 min
[9] = sample code A: apical(AP), 180 min
[10] = sample code B: basolateral (BL), 30 min
[11] = sample code B: basolateral (BL), 60 min
[12] = sample code B: basolateral (BL), 90 min
[13] = sample code B: basolateral (BL), 120 min
[14] = sample code B: basolateral (BL), 150 min
[15] = sample code B: basolateral (BL), 180 min
[16] = Caco-2, ART given as nACTs equivalent to 10 μM ART

T1 sequence (P08183 whole entry): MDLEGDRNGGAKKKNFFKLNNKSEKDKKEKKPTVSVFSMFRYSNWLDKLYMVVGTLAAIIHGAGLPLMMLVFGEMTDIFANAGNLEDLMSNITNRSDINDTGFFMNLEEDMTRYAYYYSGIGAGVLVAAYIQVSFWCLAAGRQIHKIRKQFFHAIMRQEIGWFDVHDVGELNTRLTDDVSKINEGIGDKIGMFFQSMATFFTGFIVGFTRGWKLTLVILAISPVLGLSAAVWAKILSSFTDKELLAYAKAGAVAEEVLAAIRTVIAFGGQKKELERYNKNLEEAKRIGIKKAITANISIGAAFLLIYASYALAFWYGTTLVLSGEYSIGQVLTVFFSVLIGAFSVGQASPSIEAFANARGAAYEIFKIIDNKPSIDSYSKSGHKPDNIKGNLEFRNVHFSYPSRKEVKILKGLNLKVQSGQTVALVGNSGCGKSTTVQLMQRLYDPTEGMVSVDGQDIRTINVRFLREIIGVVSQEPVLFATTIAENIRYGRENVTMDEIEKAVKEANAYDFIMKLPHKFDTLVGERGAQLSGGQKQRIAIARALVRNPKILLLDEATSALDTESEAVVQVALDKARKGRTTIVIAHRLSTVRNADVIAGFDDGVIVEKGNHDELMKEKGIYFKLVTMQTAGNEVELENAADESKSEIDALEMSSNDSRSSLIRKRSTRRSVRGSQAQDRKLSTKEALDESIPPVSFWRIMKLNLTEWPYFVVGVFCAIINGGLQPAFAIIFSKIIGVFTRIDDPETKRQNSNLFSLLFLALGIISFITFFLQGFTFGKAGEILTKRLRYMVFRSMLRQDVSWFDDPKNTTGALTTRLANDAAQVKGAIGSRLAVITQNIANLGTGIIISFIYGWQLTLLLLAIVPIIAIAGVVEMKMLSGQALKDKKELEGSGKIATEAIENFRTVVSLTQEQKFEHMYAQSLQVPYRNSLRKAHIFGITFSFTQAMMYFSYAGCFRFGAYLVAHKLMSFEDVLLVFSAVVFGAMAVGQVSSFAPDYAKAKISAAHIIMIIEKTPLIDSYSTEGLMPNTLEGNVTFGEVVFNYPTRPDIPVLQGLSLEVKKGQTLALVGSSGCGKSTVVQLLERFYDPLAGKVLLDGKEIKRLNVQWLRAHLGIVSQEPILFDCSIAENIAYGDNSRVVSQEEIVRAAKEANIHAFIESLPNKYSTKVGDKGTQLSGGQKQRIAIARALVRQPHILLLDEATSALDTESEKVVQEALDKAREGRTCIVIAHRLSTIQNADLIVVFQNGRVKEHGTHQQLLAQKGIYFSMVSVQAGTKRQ

C[C@@H]1CC[C@H]2[C@@H](C)C(=O)O[C@@H]3O[C@@]4(C)CC[C@@H]1[C@]32OO4 [ART, Artemisinin, reference compound]
half-life ([1]; 100 mg/kg, t1/2, rat plasma, ART after gavage of pure ART (PU) 100 mg/kg, n = 6): 1.1 ± 0.335 h | half-life ([1]; 100 mg/kg, t1/2z, pure artemisinin, rat plasma, DAS 2.0, Mean of 6 rats): 1.1 h | half-life ([1]; 352 mg/kg, t1/2, rat plasma, component after gavage of nACTs 352 mg/kg, n = 6): 1.76 ± 0.938 h | Cz(尾点回归值) ([1]; pure artemisinin, rat plasma, DAS 2.0, individual rats No1-No6): 14.237 mg/L | transhipment of ART, AP-BL (Caco-2 cell monolayers; 30 min): 3.69 nmol and 3.84 nmol and 3.71 nmol | transhipment of ART, AP-BL (Caco-2 cell monolayers; 60 min): 5.02 nmol and 5.27 nmol and 5.14 nmol | transhipment of ART, AP-BL (Caco-2 cell monolayers; 90 min): 7.24 nmol and 7.11 nmol and 7.33 nmol | transhipment of ART, AP-BL (Caco-2 cell monolayers; 120 min): 8.97 nmol and 9.16 nmol and 9.09 nmol | transhipment of ART, AP-BL (Caco-2 cell monolayers; 150 min): 10.67 nmol and 10.60 nmol and 10.62 nmol | transhipment of ART, AP-BL (Caco-2 cell monolayers; 180 min): 11.97 nmol (2×) and 11.99 nmol | transhipment of ART, Transepithelial transport in BL-to-AP (Caco-2 cell monolayers; 30 min): 28.49 nmol and 28.67 nmol and 28.4 nmol | transhipment of ART, Transepithelial transport in BL-to-AP (Caco-2 cell monolayers; 60 min): 55.39 nmol and 55.5 nmol and 55.82 nmol | transhipment of ART, Transepithelial transport in BL-to-AP (Caco-2 cell monolayers; 90 min): 69.96 nmol and 69.87 nmol and 69.99 nmol | transhipment of ART, Transepithelial transport in BL-to-AP (Caco-2 cell monolayers; 120 min): 90.64 nmol and 90.48 nmol and 90.67 nmol | transhipment of ART, Transepithelial transport in BL-to-AP (Caco-2 cell monolayers; 150 min): 106.51 nmol and 106.61 nmol and 106.74 nmol | transhipment of ART, Transepithelial transport in BL-to-AP (Caco-2 cell monolayers; 180 min): 124.37 nmol and 124.58 nmol and 124.56 nmol | ART original concentration, single replicate (Caco-2 cell monolayers; [4]): 786.91 ng/mL and 1910.44 ng/mL and 2313.90 ng/mL | ART original concentration, column mean (Caco-2 cell monolayers; [4]): 2112.17 ng/mL | ART concentration per group, summary block (Caco-2 cell monolayers; [4]): 2112.17 ng/mL | ART original concentration, single replicate (Caco-2 cell monolayers; [5]): 2149.07 ng/mL and 2049.02 ng/mL and 3232.78 ng/mL | ART original concentration, column mean (Caco-2 cell monolayers; [5]): 2640.90 ng/mL | ART concentration per group, summary block (Caco-2 cell monolayers; [5]): 2476.96 ng/mL | ART original concentration, single replicate (Caco-2 cell monolayers; [6]): 2915.94 ng/mL and 2813.25 ng/mL and 3472.39 ng/mL | ART original concentration, column mean (Caco-2 cell monolayers; [6]): 3142.82 ng/mL | ART concentration per group, summary block (Caco-2 cell monolayers; [6]): 3067.20 ng/mL | ART original concentration, single replicate (Caco-2 cell monolayers; [7]): 3594.17 ng/mL and 3318.58 ng/mL and 3006.12 ng/mL | ART original concentration, column mean (Caco-2 cell monolayers; [7]): 3162.35 ng/mL | ART concentration per group, summary block (Caco-2 cell monolayers; [7]): 3306.29 ng/mL | ART original concentration, single replicate (Caco-2 cell monolayers; [8]): 3213.69 ng/mL and 2917.70 ng/mL and 3363.12 ng/mL | ART original concentration, column mean (Caco-2 cell monolayers; [8]): 3140.41 ng/mL | ART concentration per group, summary block (Caco-2 cell monolayers; [8]): 3164.84 ng/mL | ART original concentration, single replicate (Caco-2 cell monolayers; [9]): 2674.58 ng/mL and 2920.77 ng/mL and 2532.18 ng/mL | ART original concentration, column mean (Caco-2 cell monolayers; [9]): 2726.47 ng/mL | ART concentration per group, summary block (Caco-2 cell monolayers; [9]): 2709.18 ng/mL | ART original concentration, single replicate (Caco-2 cell monolayers; [10]): 5260.58 ng/mL and 5169.96 ng/mL and 5652.08 ng/mL | ART concentration per group, summary block (Caco-2 cell monolayers; [10]): 5360.87 ng/mL | ART original concentration, single replicate (Caco-2 cell monolayers; [11]): 8719.34 ng/mL and 7267.89 ng/mL and 12129.77 ng/mL | ART original concentration, column mean (Caco-2 cell monolayers; [11]): 9698.83 ng/mL | ART concentration per group, summary block (Caco-2 cell monolayers; [11]): 9372.33 ng/mL | ART original concentration, single replicate (Caco-2 cell monolayers; [12]): 9503.98 ng/mL and 6910.68 ng/mL and 13549.62 ng/mL | ART original concentration, column mean (Caco-2 cell monolayers; [12]): 10230.15 ng/mL | ART concentration per group, summary block (Caco-2 cell monolayers; [12]): 9988.09 ng/mL | ART original concentration, single replicate (Caco-2 cell monolayers; [13]): 10562.24 ng/mL and 7482.04 ng/mL and 15676.89 ng/mL | ART original concentration, column mean (Caco-2 cell monolayers; [13]): 11579.46 ng/mL | ART concentration per group, summary block (Caco-2 cell monolayers; [13]): 11240.39 ng/mL | ART original concentration, single replicate (Caco-2 cell monolayers; [14]): 9970.47 ng/mL and 7130.75 ng/mL and 15441.45 ng/mL | ART original concentration, column mean (Caco-2 cell monolayers; [14]): 11286.10 ng/mL | ART concentration per group, summary block (Caco-2 cell monolayers; [14]): 10847.56 ng/mL | ART original concentration, single replicate (Caco-2 cell monolayers; [15]): 7047.15 ng/mL and 14960.70 ng/mL and 8594.06 ng/mL | ART original concentration, column mean (Caco-2 cell monolayers; [15]): 11777.38 ng/mL | ART concentration per group, summary block (Caco-2 cell monolayers; [15]): 10200.64 ng/mL | Papp A→B at 180 min, 10 μM ([2]; Caco-2, 10 μM ART alone (PU)): 7.49 ± 0.35 ×10⁻⁶ cm/s | Papp B→A at 180 min, 10 μM ([2]; Caco-2, 10 μM ART alone (PU)): 82.3 ± 2.1 ×10⁻⁶ cm/s | Papp A→B at 180 min, 10 μM [2, 16]: 8.42 ± 0.37 ×10⁻⁶ cm/s | Papp B→A at 180 min, 10 μM [2, 16]: 52.7 ± 2.3 ×10⁻⁶ cm/s | parasitemia% ([3]; 5.68 mg/kg): 70.2912% and 67.0337% and 68.4147% and 69.5326% and 69.0526% | parasitemia% ([3]; 11.368 mg/kg): 34.1852% and 49.4174% and 42.0754% and 41.1875% and 34.5379% | parasitemia% ([3]; 22.736 mg/kg): 1.979% and 6.804% and 2.98% and 0.248% and 3.003%

C[C@@H]1CC[C@H]2[C@@H](C)C(=O)O[C@@H]3O[C@@]4(C)CC[C@@H]1[C@]32O4 [DEART, Deoxyartemisinin]
reduction of R123 transport from the BL side to the AP side (P-glycoprotein (P-gp)): 22.40%
